Test results as given in patent US9302999B2, “Substituted triazoles as herbicides” (E. I. DU PONT DE NEMOURS AND COMPANY, priority 2012, dated 2016).
Like-named read-outs stand apart in the source and are kept apart here.

Assays:
Format in all cases: in vivo
[1] = tested on: pigweed (Amaranthus retroflexus); experiment: Test C pre-/postemergence: pigweed
Summary of the method: (§1)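 Visual injury scored 0–100 (100 = complete control) against untreated controls after 13–15 greenhouse days. Surfactant-containing solvent formulations applied either to soil after sowing (loam/sand) or over 1- to 4-leaf plants, 2–18 cm tall.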

[2] = tested on: winter wheat (Triticum aestivum); experiment: Test C pre-/postemergence: winter wheat
Summary of the method: as §1

[3] = tested on: wheat (Triticum aestivum); experiment: Test A pre-/postemergence: wheat; conditions: for plant injury at 125 g/ha / plant injury at 500 g/ha: Triticum aestivum, 240 h
Summary of the method: (§2)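 Visual 0–100 injury ratings (0 no effect, 100 complete control) taken about ten days after treatment, relative to untreated controls. Preemergence treatment was a directed soil spray; postemergence plants were 2–10 cm tall at one- to two-leaf stage. Soil: loam/sand blend.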

[4] = tested on: velvetleaf (Abutilon theophrasti); experiment: Test A pre-/postemergence: velvetleaf; conditions: for pest or weed control at 125 g/ha / pest or weed control at 500 g/ha: Abutilon theophrasti, 240 h
Summary of the method: as §2

[5] = tested on: chickweed (common chickweed, Stellaria media); experiment: Test C postemergence: chickweed
Summary of the method: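 Seedlings are raised in pots of peat-based medium to 2–18 cm (1- to 4-leaf stage). The formulated compound is then applied postemergence. Plants stay in the greenhouse for 13 to 15 days and are rated visually against controls, where 0 means no effect and 100 complete control.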

[6] = tested on: corn (Zea mays); experiment: Test A pre-/postemergence: corn
Summary of the method: as §2

[7] = tested on: nutsedge, yellow (yellow nutsedge, Cyperus esculentus); experiment: Test C pre-/postemergence: nutsedge, yellow
Summary of the method: as §1

[8] = tested on: foxtail, giant (giant foxtail, Setaria faberii); experiment: Test A pre-/postemergence: foxtail, giant; conditions: for pest or weed control at 125 g/ha / pest or weed control at 500 g/ha: Setaria faberi, 240 h
Summary of the method: as §2

[9] = tested on: sedge, umbrella (small-flower umbrella sedge Cyperus difformis); experiment: Test B flooded paddy: sedge, umbrella; conditions: Flood; 250 g ai/ha; applied to paddy water at 2-leaf stage; visually evaluated after 13 to 15 days
Summary of the method: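 At two leaves, seedlings received the test compound via the paddy water, pots having been flooded 3 cm over the soil surface and kept so. Greenhouse-held for 13 to 15 days, then judged by eye against controls on a scale running 0 (no effect) to 100 (complete control).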

[10] = Postemergence, 31 g ai/ha, scale 0 to 100 (0 no effect, 100 complete control)
[11] = Postemergence, 125 g ai/ha, scale 0 to 100, 0 no effect, 100 complete control
[12] = Postemergence, 250 g ai/ha, scale 0 to 100
[13] = Preemergence, 31 g ai/ha, scale of 0 to 100, 0 is no effect, 100 is complete control
[14] = Preemergence, 62 g ai/ha, scale of 0 to 100, 0 is no effect, 100 is complete control
[15] = Preemergence, 125 g ai/ha, scale 0 to 100, 0 no effect, 100 complete control
[16] = Preemergence, 250 g ai/ha, scale 0 to 100, 0 no effect, 100 complete control
[17] = Postemergence, 62 g ai/ha, scale 0 to 100 (0 no effect, 100 complete control)
[18] = Postemergence, 125 g ai/ha, 0 to 100 scale, 0 is no effect, 100 is complete control
[19] = Postemergence, 500 g ai/ha, visual rating on 0 to 100 scale (0 no effect, 100 complete control), approximately ten days
[20] = Preemergence, 125 g ai/ha, 0 to 100 scale (0 no effect, 100 complete control)
[21] = Preemergence, 500 g ai/ha, 0 to 100 scale, 0 is no effect, 100 is complete control
[22] = 31 g ai/ha, scale 0 to 100 (0 no effect, 100 complete control)
[23] = 62 g ai/ha, scale 0 to 100 (0 no effect, 100 complete control)
[24] = 125 g ai/ha, scale 0 to 100, 0 no effect, 100 complete control
[25] = Preemergence, 125 g ai/ha, 0 to 100 scale where 0 is no effect and 100 is complete control
[26] = Preemergence, 500 g ai/ha, 0 to 100 scale (0 no effect, 100 complete control)

Cc1nn(-c2ccc(C(F)(F)F)cn2)nc1Oc1ccnc(C(F)(F)F)c1 [Compound 23]
Plant response rating, Pigweed [1, 10]: 70
Plant response rating, Pigweed [1, 11]: 80
Plant response rating, Pigweed [1, 12]: 95
Plant response rating, Pigweed [1, 13]: 100
Plant response rating, Pigweed [1, 14]: 100
Plant response rating, Pigweed [1, 15]: 100
Plant response rating, Pigweed [1, 16]: 100
Plant response rating, Wheat [2, 10]: 10
Plant response rating, Wheat [2, 17]: 10
Plant response rating, Wheat [2, 11]: 15
Plant response rating, Wheat [2, 12]: 30
Plant response rating, Wheat [2, 13]: 0
Plant response rating, Wheat [2, 14]: 0
Plant response rating, Wheat [2, 15]: 20
Plant response rating, Wheat [2, 16]: 35
Wheat plant response rating [3, 18]: 20
Wheat plant response rating [3, 19]: 50
Plant response rating, Wheat [3, 20]: 0
Plant response rating, Wheat [3, 21]: 70
Velvetleaf plant response rating [4, 18]: 90
Velvetleaf plant response rating [4, 19]: 100
Plant response rating, Velvetleaf [4, 20]: 50
Plant response rating, Velvetleaf [4, 21]: 100
Plant response rating, Chickweed [5, 22]: 30
Plant response rating, Chickweed [5, 23]: 55
Plant response rating, Chickweed [5, 24]: 60
Plant response rating, Chickweed ([5]; 250 g ai/ha, scale 0 to 100): 70
Corn plant response rating [6, 18]: 30
Corn plant response rating [6, 19]: 50
Plant response rating, Corn [6, 20]: 10
Plant response rating, Corn [6, 21]: 40
Plant response rating, Nutsedge, Yellow [7, 10]: 10
Plant response rating, Nutsedge, Yellow [7, 17]: 10
Plant response rating, Nutsedge, Yellow [7, 11]: 10
Plant response rating, Nutsedge, Yellow [7, 12]: 10
Plant response rating, Nutsedge, Yellow [7, 13]: 5
Plant response rating, Nutsedge, Yellow [7, 14]: 10
Plant response rating, Nutsedge, Yellow [7, 15]: 35
Plant response rating, Nutsedge, Yellow [7, 16]: 55
Foxtail, Giant plant response rating [8, 18]: 90
Foxtail, Giant plant response rating [8, 19]: 90
Plant response rating, Foxtail, Giant [8, 20]: 100
Plant response rating, Foxtail, Giant [8, 21]: 100

Cc1nn(-c2ccc(F)cc2F)nc1Cc1ccnc(C(F)(F)F)c1 [Compound 54, 4-[[2-(2,4-difluorophenyl)-5-methyl-2H-1,2,3-triazol-4-yl]methyl]-2-(trifluoromethyl)pyridine]
plant injury at 125 g/ha ([3]; post-emergence, Postemergence, 125 g ai/ha, 0 to 100 scale, 0 is no effect, 100 is complete control, read-out: Wheat plant response rating): 20%
plant injury at 500 g/ha ([3]; post-emergence, Postemergence, 500 g ai/ha, visual rating on 0 to 100 scale (0 no effect, 100 complete control), approximately ten days, read-out: Wheat plant response rating): 30%
plant injury at 125 g/ha ([3]; pre-emergence, Preemergence, 125 g ai/ha, 0 to 100 scale (0 no effect, 100 complete control), read-out: Plant response rating, Wheat): 10%
plant injury at 500 g/ha ([3]; pre-emergence, Preemergence, 500 g ai/ha, 0 to 100 scale, 0 is no effect, 100 is complete control, read-out: Plant response rating, Wheat): 30%
Plant response rating, Sedge, Umbrella (0 to 100 scale, 0 is no effect, 100 is complete control) [9]: 85
pest or weed control at 125 g/ha ([4]; post-emergence, Postemergence, 125 g ai/ha, 0 to 100 scale, 0 is no effect, 100 is complete control, read-out: Velvetleaf plant response rating): 90%
pest or weed control at 500 g/ha ([4]; post-emergence, Postemergence, 500 g ai/ha, visual rating on 0 to 100 scale (0 no effect, 100 complete control), approximately ten days, read-out: Velvetleaf plant response rating): 100%
pest or weed control at 125 g/ha ([4]; pre-emergence, Preemergence, 125 g ai/ha, 0 to 100 scale (0 no effect, 100 complete control), read-out: Plant response rating, Velvetleaf): 30%
pest or weed control at 500 g/ha ([4]; pre-emergence, Preemergence, 500 g ai/ha, 0 to 100 scale, 0 is no effect, 100 is complete control, read-out: Plant response rating, Velvetleaf): 60%
plant injury at 125 g/ha ([6]; Zea mays, post-emergence, 240 h, Postemergence, 125 g ai/ha, 0 to 100 scale, 0 is no effect, 100 is complete control, read-out: Corn plant response rating): 30%
plant injury at 500 g/ha ([6]; Zea mays, post-emergence, 240 h, Postemergence, 500 g ai/ha, visual rating on 0 to 100 scale (0 no effect, 100 complete control), approximately ten days, read-out: Corn plant response rating): 60%
Corn plant response rating (crop injury, 0 = no effect, 100 = complete kill) at 125 g/ha ([6]; Zea mays, pre-emergence, 240 h, Preemergence, 125 g ai/ha, 0 to 100 scale (0 no effect, 100 complete control)): 10%
Corn plant response rating (crop injury, 0 = no effect, 100 = complete kill) at 500 g/ha ([6]; Zea mays, pre-emergence, 240 h, Preemergence, 500 g ai/ha, 0 to 100 scale, 0 is no effect, 100 is complete control): 40%
pest or weed control at 125 g/ha ([8]; post-emergence, Postemergence, 125 g ai/ha, 0 to 100 scale, 0 is no effect, 100 is complete control, read-out: Foxtail, Giant plant response rating): 80%
pest or weed control at 500 g/ha ([8]; post-emergence, Postemergence, 500 g ai/ha, visual rating on 0 to 100 scale (0 no effect, 100 complete control), approximately ten days, read-out: Foxtail, Giant plant response rating): 90%
pest or weed control at 125 g/ha ([8]; pre-emergence, Preemergence, 125 g ai/ha, 0 to 100 scale (0 no effect, 100 complete control), read-out: Plant response rating, Foxtail, Giant): 100%
pest or weed control at 500 g/ha ([8]; pre-emergence, Preemergence, 500 g ai/ha, 0 to 100 scale, 0 is no effect, 100 is complete control, read-out: Plant response rating, Foxtail, Giant): 100%

Cc1nn(-c2ccc(C(F)(F)F)cc2)nc1Oc1ccnc(C(F)(F)F)c1 [Compound 120]
Plant response rating, Pigweed [1, 10]: 95
Plant response rating, Pigweed [1, 17]: 98
Plant response rating, Pigweed [1, 11]: 98
Plant response rating, Pigweed [1, 12]: 100
Plant response rating, Pigweed [1, 13]: 100
Plant response rating, Pigweed [1, 14]: 100
Plant response rating, Pigweed [1, 15]: 100
Plant response rating, Pigweed [1, 16]: 100
Plant response rating, Wheat [2, 10]: 10
Plant response rating, Wheat [2, 17]: 10
Plant response rating, Wheat [2, 11]: 35
Plant response rating, Wheat [2, 12]: 35
Plant response rating, Wheat [2, 13]: 5
Plant response rating, Wheat [2, 14]: 25
Plant response rating, Wheat [2, 15]: 40
Plant response rating, Wheat [2, 16]: 50
Wheat plant response rating [3, 18]: 10
Wheat plant response rating [3, 19]: 30
Plant response rating, Wheat [3, 25]: 10
Plant response rating, Wheat [3, 26]: 20
Velvetleaf plant response rating [4, 18]: 50
Velvetleaf plant response rating [4, 19]: 80
Plant response rating, Velvetleaf [4, 25]: 40
Plant response rating, Velvetleaf [4, 26]: 70
Plant response rating, Chickweed [5, 22]: 75
Plant response rating, Chickweed [5, 23]: 100
Plant response rating, Chickweed [5, 24]: 100
Plant response rating, Chickweed ([5]; 250 g ai/ha, scale 0 to 100): 100
Corn plant response rating [6, 18]: 20
Corn plant response rating [6, 19]: 50
Plant response rating, Corn [6, 25]: 20
Plant response rating, Corn [6, 26]: 30
Plant response rating, Nutsedge, Yellow [7, 10]: 0
Plant response rating, Nutsedge, Yellow [7, 17]: 0
Plant response rating, Nutsedge, Yellow [7, 11]: 0
Plant response rating, Nutsedge, Yellow [7, 12]: 0
Plant response rating, Nutsedge, Yellow [7, 13]: 0
Plant response rating, Nutsedge, Yellow [7, 14]: 0
Plant response rating, Nutsedge, Yellow [7, 15]: 0
Plant response rating, Nutsedge, Yellow [7, 16]: 0
Foxtail, Giant plant response rating [8, 18]: 80
Foxtail, Giant plant response rating [8, 19]: 80
Plant response rating, Foxtail, Giant [8, 25]: 100
Plant response rating, Foxtail, Giant [8, 26]: 100

Cc1nn(-c2ccc(F)cc2F)nc1Oc1ccnc(C(F)(F)F)c1 [Compound 146]
Plant response rating, Pigweed [1, 13]: 85
Plant response rating, Pigweed [1, 14]: 90
Plant response rating, Pigweed [1, 15]: 100
Plant response rating, Pigweed [1, 16]: 100
Plant response rating, Wheat [2, 14]: 0
Plant response rating, Wheat [2, 15]: 0
Plant response rating, Wheat [2, 16]: 10
Plant response rating, Wheat [3, 18]: 10
Wheat plant response rating [3, 19]: 30
Plant response rating, Wheat [3, 25]: 0
Plant response rating, Wheat [3, 26]: 30
Plant response rating, Sedge, Umbrella (0 to 100 scale, 0 is no effect, 100 is complete control) [9]: 80
Plant response rating, Velvetleaf [4, 18]: 70
Velvetleaf plant response rating [4, 19]: 100
Plant response rating, Velvetleaf [4, 25]: 10
Plant response rating, Velvetleaf [4, 26]: 50
Corn plant response rating [6, 18]: 20
Corn plant response rating [6, 19]: 80
Plant response rating, Corn [6, 25]: 0
Plant response rating, Corn [6, 26]: 10
Plant response rating, Nutsedge, Yellow [7, 13]: 0
Plant response rating, Nutsedge, Yellow [7, 14]: 0
Plant response rating, Nutsedge, Yellow [7, 16]: 10
Foxtail, Giant plant response rating [8, 18]: 80
Foxtail, Giant plant response rating [8, 19]: 90
Plant response rating, Foxtail, Giant [8, 25]: 100
Plant response rating, Foxtail, Giant [8, 26]: 100
